Columns and labels:
Test in all cases: relative viability (nuclei count vs DMSO), 5 days (fraction); higher = more cells survive
[1] = compound: CC1=CC(=NN1)NC2=CC(=NC(=N2)/C=C/C3=CC=CC=C3)N4CCN(CC4)C + CC(C)C[C@H](NC(=O)[C@H](Cc1ccccc1)NC(=O)c1cnccn1)B(O)O [Bortezomib] (partner 0.002 µM)
Outline: (§1)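 Relative viability was taken as the ratio of nuclei in treated wells to nuclei in vehicle wells. Lung cancer cell lines in 1536-well plates received compounds by pin tool one day after seeding, either one drug alone or a fixed anchor-drug dose plus five library-drug doses (not always all listed) in √10 steps. Nuclei were counted on 4× images after 5 days of treatment, and values are medians of duplicate plates.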

[2] = compound: CC(C)C[C@H](NC(=O)[C@H](Cc1ccccc1)NC(=O)c1cnccn1)B(O)O [Bortezomib] + Nc1nc2[nH]cc(CCc3ccc(C(=O)N[C@@H](CCC(=O)O)C(=O)O)cc3)c2c(=O)[nH]1 [Pemetrexed] (partner 0.2 µM)
Outline: as §1

[3] = compound: CC1=CC(=NN1)NC2=CC(=NC(=N2)/C=C/C3=CC=CC=C3)N4CCN(CC4)C + N=C(N)NC(=N)NCCc1ccccc1 [Phenformin] (partner 250 µM)
Outline: as §1

[4] = compound: CC(C)C[C@H](NC(=O)[C@H](Cc1ccccc1)NC(=O)c1cnccn1)B(O)O [Bortezomib] + CC1(C)CCC(c2ccc(Cl)cc2)=C(CN2CCN(c3ccc(C(=O)NS(=O)(=O)c4ccc(N[C@H](CCN5CCOCC5)CSc5ccccc5)c(S(=O)(=O)C(F)(F)F)c4)cc3)CC2)C1 [Navitoclax] (partner 0.5 µM)
Outline: as §1

| Cell Line | relative viability ([1]; first compound 0.08 µM) | relative viability ([1]; first compound 0.253 µM) | relative viability ([1]; first compound 0.8 µM) | relative viability ([1]; first compound 2.53 µM) | relative viability ([1]; first compound 8 µM) | relative viability ([2]; first compound 0.0002 µM) | relative viability ([2]; first compound 0.000632 µM) | relative viability ([2]; first compound 0.002 µM) | relative viability ([2]; first compound 0.006325 µM) | relative viability ([2]; first compound 0.02 µM) | relative viability ([3]; first compound 0.08 µM) | relative viability ([3]; first compound 0.253 µM) | relative viability ([3]; first compound 0.8 µM) | relative viability ([3]; first compound 2.53 µM) | relative viability ([3]; first compound 8 µM) | relative viability ([4]; first compound 0.0002 µM) | relative viability ([4]; first compound 0.000632 µM) | relative viability ([4]; first compound 0.002 µM) | relative viability ([4]; first compound 0.006325 µM) | relative viability ([4]; first compound 0.02 µM) |
| --- | --- | --- | --- | --- | --- | --- | --- | --- | --- | --- | --- | --- | --- | --- | --- | --- | --- | --- | --- | --- |
| NCI-H3122 | 0.92 | 0.924 | 1.07 | 1.02 | 0.542 | 0.2 | 0.202 | 0.195 | 0.171 | 0.117 | 0.385 | 0.384 | 0.415 | 0.285 | 0.138 | 1.01 | 1.04 | 1.06 | 0.625 | 0.167 |
| PC-3 [JPC-3] | 0.836 | 0.968 | 0.838 | 0.853 | 0.761 | 1.02 | 1.14 | 0.727 | 0.196 | 0.184 | 0.456 | 0.475 | 0.498 | 0.472 | 0.437 | 0.783 | 0.842 | 0.724 | 0.44 | 0.139 |
| PC-14 | 0.748 | 0.947 | 0.839 | 0.488 | 0.0557 | 0.126 | 0.142 | 0.166 | 0.0636 | 0.078 | 0.628 | 0.618 | 0.567 | 0.166 | 0.064 | 1.02 | 0.941 | 0.992 | 0.0667 | 0.0697 |
| RERF-LC-KJ | 1.09 | 1.16 | 1.12 | 0.748 | 0.381 | 0.673 | 0.459 | 0.464 | 0.347 | 0.358 | 0.417 | 0.457 | 0.372 | 0.256 | 0.245 | 1.01 | 1.19 | 0.593 | 0.247 | 0.244 |
| SK-LU-1 | 1.1 | 1.28 | 1.01 | 0.429 | 0.195 | 0.911 | 0.984 | 0.704 | 0.188 | 0.161 | 0.58 | 0.511 | 0.475 | 0.109 | 0.0429 | 0.781 | 0.83 | 0.903 | 0.0872 | 0.0835 |
| SW 1573 | 1.13 | 1.02 | 1.02 | 0.348 | 0.1 | 0.844 | 0.993 | 0.76 | 0.0663 | 0.0512 | 0.412 | 0.337 | 0.319 | 0.152 | 0.0862 | 0.849 | 1.12 | 0.928 | 0.0531 | 0.0615 |
| UMC-11 | 0.718 | 0.726 | 0.636 | 0.12 | 0.08 | 0.694 | 0.875 | 0.745 | 0.39 | 0.17 | 0.348 | 0.289 | 0.279 | 0.137 | 0.131 | 0.288 | 0.281 | 0.315 | 0.12 | 0.101 |

— the supplement of paper PMC10307832
